According to patent US20240285671A1, “SEQUENTIAL INNATE AND ADAPTIVE IMMUNE MODULATION FOR CANCER TREATMENT” (Gentechnologiestiftung- Dr. Georg und Ingeburg Scheel …, priority 2021, published 2024):
Like-named read-outs stand apart in the source and are kept apart here. Marks after values point to notes of the source that are not given here.

Key:
[1] = tested on: extensive stage small cell lung cancer; settings: IMpower133 treatment arm, ITT, with chemotherapy; cited from earlier work
[2] = tested on: extensive stage small cell lung cancer; settings: CASPIAN treatment arm, ITT, with chemotherapy; cited from earlier work
[3] = tested on: extensive stage small cell lung cancer; test: IMPULSE phase II trial (NCT02200081), switch maintenance vs continuation maintenance, survival; format: in vivo, human
Excerpt: An international, multicentre, open-label phase II trial conducted on 102 extensive stage small cell lung cancer after platinum based first line therapy patients. Patients who had received four cycles of first line induction chemotherapy (platinum-based) were randomized to receive either combination lefitolimod maintenance therapy, or local standard of care (control). After progression, patients received second line therapy.
The phase II IMPULSE study explored the benefit in OS of an immunotherapeutic switch maintenance therapy of ES-SCLC by the TLR9 agonist lefitolimod (dSLIM-30L1). In comparison to the various local standards of care (SoC), typically carboplatin plus etoposide, or cisplatin plus etoposide. […] A combinatorial post hoc analyses was performed of all accessible immunological data and relevant clinical parameters of the IMPLUSE study. Additionally, in order to determine in what conditions adaptive or innate immune stimulation may enhance chemotherapy outcomes, published mPFS and mOS data from the respective treatment and control arms for chemotherapy immunomodulation maintenance studies utilizing PD-L1 inhibitor-antibodies were incorporated, comparing the use of checkpoint inhibitors with the TLR9 agonist used in IMPULSE.
All lung cancer trials used (IMPULSE, IMpower133, CASPIAN, Keynote-604, and EA5161) are “maintenance” trials, wherein an immune induction treatment, a set of chemotherapy cycles, is applied to initiate anti-tumour responses (as defined by RECIST guidelines), followed by maintenance therapy until tumour progress. IMpower133, CASPIAN, Keynote-604, and EA5161 are “continuation maintenance” trials, whereas IMPULSE is a “switch maintenance” trial. In the four continuation maintenance trials, the immunomodulatory product (IMP), i.e., the respective […] checkpoint inhibitors (CPI) atezolizumab, durvalumab, pembrolizumab, or nivolumab, are present during induction chemotherapy and in the maintenance phase. In the switch maintenance trial IMPULSE, the IMP lefitolimod is not used during induction chemotherapy but introduced (“switched” to) in the maintenance phase of the trial (FIG. 1). Thus, for comparison of IMPULSE PFS and OS data with the other studies, IMPULSE mPFS1 and mOS1 were factored from the start of induction chemotherapy. Therefore, for all following analyses, the respective mOS1 values of IMPULSE are used.

[4] = tested on: metastatic colorectal cancer; test: IMPALA phase III trial (NCT02077868), progression-free survival; format: in vivo, human
Excerpt: An international, multicentre, open-label phase III trial conducted on 549 metastatic colorectal cancer patients in 8 EU countries. […] After progression, patients started re-induction therapy, with those in the experimental arm continuing to receive lefitolimod in addition.

[5] = tested on: Regulatory T cells (% of CD4+ T cells); test: Regulatory T cells in blood of IMPULSE patients, flow cytometry; format: in vivo, human
[6] = tested on: extensive stage small cell lung cancer; settings: EA5161 treatment arm, ITT, with chemotherapy; cited from earlier work
[7] = tested on: extensive stage small cell lung cancer; settings: Keynote-604 treatment arm, ITT, with chemotherapy; cited from earlier work
[8] = Baseline, end of 4th cycle of induction PE chemotherapy
[9] = Visit 2, days 118-125 from start of induction PE chemotherapy
[10] = Visit 3, days 146-153 from start of induction PE chemotherapy
[11] = Visit 4, days 188-195 from start of induction PE chemotherapy

Atezolizumab: PD-L1 inhibiting antibody (Roche AG; CAS No. 1380723-44-3), IMpower133 trial
mOS treatment [1]: 12.3 m

Durvalumab: PD-L1 inhibiting antibody (Astra Zeneca, CAS No. 1428935-60-7), CASPIAN trial
mOS treatment [2]: 13.0 m

Lefitolimod
mOS treatment ([3]; IMPULSE treatment arm, ITT, mOS1 calculated from start of induction chemotherapy): 12.4* m
gain in mOS ([3]; OS1, 5 cycles vs 4 cycles of PE chemotherapy followed by TLR9 agonist (FIG. 2)): 2.3 m
efficacy in terms of mOS ([3]; applied subsequent to platinum-based chemotherapy rather than in combination, IMPULSE compared to IMPALA): more efficacious
mOS improved by ([3]; four qw3 PE cycles followed by a 5th cycle with PE in week 1 and TLR9 agonist in weeks 2 and 3 (FIG. 2)): 2.3 months
PFS1 ([3]; full analysis set (FAS)): 6.1 months
mOS1 ([3]; patient subgroup (FIG. 6)): 10.7 months
mOS1 ([3]; patient subgroup with PFS threshold >6.2 months (FIG. 6)): 17.1 months
benefit by mPFS or mOS compared to local standards of care ([3]; switch maintenance therapy, all patients): No additional benefit
median OS in certain subgroups of patients ([3]; switch maintenance therapy, subgroups): strong median OS improvements
mPFS compared to control ([4]; patients receiving re-induction treatment followed by cycles of chemotherapy and lefitolimod): significantly superior
mPFS compared to the control arm ([4]; switch-maintenance therapy): inferior
Regulatory T cells, Max [5, 8]: 12.22 % of CD4+ T cells
Regulatory T cells, Mean [5, 8]: 7.3905 % of CD4+ T cells
Regulatory T cells, Median [5, 8]: 7.470 % of CD4+ T cells
Regulatory T cells, Min [5, 8]: 4.19 % of CD4+ T cells
Regulatory T cells, Max [5, 9]: 13.65 % of CD4+ T cells
Regulatory T cells, Mean [5, 9]: 8.2827 % of CD4+ T cells
Regulatory T cells, Median [5, 9]: 8.100 % of CD4+ T cells
Regulatory T cells, Min [5, 9]: 4.44 % of CD4+ T cells
Regulatory T cells, Max [5, 10]: 13.06 % of CD4+ T cells
Regulatory T cells, Mean [5, 10]: 8.7502 % of CD4+ T cells
Regulatory T cells, Median [5, 10]: 8.905 % of CD4+ T cells
Regulatory T cells, Min [5, 10]: 4.27 % of CD4+ T cells
Regulatory T cells, Max [5, 11]: 16.33 % of CD4+ T cells
Regulatory T cells, Mean [5, 11]: 9.5175 % of CD4+ T cells
Regulatory T cells, Median [5, 11]: 9.205 % of CD4+ T cells
Regulatory T cells, Min [5, 11]: 5.82 % of CD4+ T cells
fraction of regulatory T cells (Treg) ([5]; over duration of treatment, IMPULSE): increases with duration

Nivolumab: checkpoint inhibitor antibody (Bristol-Myers Squibb; CAS No 946414-94-4), EA5161 trial
mOS treatment [6]: 11.3 m

Pembrolizumab: checkpoint inhibitor antibody (Merck Inc.; CAS No. 1374853-91-4), Keynote-604 trial
mOS treatment [7]: 10.8 m
